Data published in patent US4732977A, “Carbapenem antibiotics” (priority 1986, dated 1988).
≈ marks a conversion by molar mass, not a printed value. Like-named read-outs stand apart in the source and are kept apart here.

What was measured:
[1] = test system: P. aeruginosa A21213; assay: M.I.C., tube dilution; assay type: cell-based; details: Pseudomonas aeruginosa
[2] = test system: K. pneumoniae A20468; assay: M.I.C., tube dilution; assay type: cell-based; details: Klebsiella pneumoniae, A20468, overnight incubation at 37° C., Nutrient Broth
[3] = test system: P. vulgaris A21559; assay: M.I.C., tube dilution; assay type: cell-based; details: Proteus vulgaris, A21559, overnight incubation at 37° C., Nutrient Broth; read-out: MIC
[4] = test system: S. pneumoniae A-9585; assay: M.I.C., tube dilution; assay type: cell-based; details: Streptococcus pneumoniae, A9585; overnight incubation at 37° C., Nutrient Broth; read-out: MIC
[5] = test system: E. cloacae A-9659; assay: M.I.C., tube dilution; assay type: cell-based; details: Enterobacter cloacae, A9659
[6] = test system: P. aeruginosa A-9843a; assay: animal or person; assay type: in vivo, mice; details: Pseudomonas aeruginosa, A9843A, in Mus musculus, im, read-out: PD50/treatment
Procedure: (§1) The PD50 (dose in mg/kg required to give protection to 50% of the infected mice) is indicated.
with drugs 0 and 2 hours postinfection.
(§2) The PD50 (dose in mg/kg) required to give protection to 50% of the infected mice is indicated.

[7] = test system: S. aureus A-9606; assay: Protective effect in intramuscular treatment of infected mice; assay type: in vivo; details: Staphylococcus aureus, im; mice, i.m.; S. aureus A9606; read-out: PD50/treatment
Procedure: as §1
with drugs 0 and 2 hours postinfection.
as §2

[8] = test system: S. faecalis A20688; assay: M.I.C., tube dilution; assay type: cell-based; details: Enterococcus faecalis, A20688, overnight incubation at 37° C., Nutrient Broth; read-out: MIC
[9] = test system: S. aureus A-9537; assay: M.I.C., tube dilution; assay type: cell-based; details: Staphylococcus aureus, read-out: MIC
[10] = test system: E. coli A20341-1; assay: M.I.C., tube dilution; assay type: cell-based; details: Escherichia coli, read-out: MIC
[11] = test system: P. rettgeri A22424; assay: M.I.C., tube dilution; assay type: cell-based; details: Providencia rettgeri, A22424
[12] = test system: S. pyogenes A-9604; assay: M.I.C., tube dilution; assay type: cell-based; details: Streptococcus pyogenes, A9604; overnight incubation at 37° C., Nutrient Broth; read-out: MIC
[13] = Blood levels in mice after intramuscular administration; details: mouse, blood, im, 20 mg/kg;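 further: compounds dissolved in 0.1 M phosphate buffer at pH 7, data from one experiment using four mice for each compound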
Text: Compounds were solubilized in 0.1 M phosphate buffer pH 7.
a single test; 4 mice used per compound.
Compounds were solubilized in 0.1 M phosphate buffer, pH 7.
on a single test; 4 mice per compound.

[14] = test system: E. coli A15119; assay: M.I.C., tube dilution; assay type: cell-based; details: Escherichia coli, A15119, read-out: MIC
[15] = Half-life (stability) in buffer solution; assay type: physicochemical; details: for half-life at 100 µM: 10^-4 M, (phosphate) buffer pH 7.4, 36.8° C.
Procedure: T1/2 =9.8 h (measured at a concentration of 10^-4 M in phosphate buffer pH 7.4 at 36.8° C.).
UV (phosphate buffer, pH 7.4) λmax 294 nm (ε=8,202); T1/2 (phosphate buffer, pH 7.4, M=0.967, T=37° C.) 9.1 h.
(c of 10^-4 M in pH 7.4 phosphate buffer.
.tau.1/2 =20.8 h measured at 37° C. in buffer (pG 7.4) for a concentration of 10^-4 M.
.tau.1/2 =12.5 h measured at 37° C. in buffer pH 7.4 for a concentration of 10^-4 M.
h (measured for a concentration of 10^-4 M at 36.8° C. in buffer pH 7.4).
.tau.1/2 =26.0 h (measured for a concentration of 10^-4 M at 36.8° C. in buffer pH 7.4).
.tau.1/2 =16.6 h (measured at 36.8° C., pH 7.4 for a concentration of 10^-4 M) and (5R, 6S) 6-(1R-hydroxyethyl)7-oxo-3-[1,2,6-trimethylpyridinium-4-yl)methylthio]-1-azabicyclo[3.2.0 hept-2-ene-2-carboxylate, 0.010 g, 0.7%;
.tau.1/2 =11.6 h (measured for a concentration of 10^-4 M at 36.8° C. in buffer pH 7.4).
.tau.1/2 =13.4 h (measured for a concentration of 10^-4 M at 36.8° C. in buffer pH 7.4).
.tau.1/2 =14.4 h (measured for a concentration of 10^-4 M at 36.8° C. in buffer pH 7.4).
T 1/2: 10.2 h (biological buffer).
.tau.1/2 =10.2 h measured at 36.8° C. for a concentration of 10^-4 M in buffer pH 7.4.

[16] = test system: S. marcescens A20019; assay: M.I.C., tube dilution; assay type: cell-based; details: Serratia marcescens, A20019; overnight incubation at 37° C., Nutrient Broth
[17] = test system: K. pneumoniae A-9664; assay: M.I.C., tube dilution; assay type: cell-based; details: Klebsiella pneumoniae, A9664, overnight incubation at 37° C., Nutrient Broth
[18] = A21213, overnight incubation at 37° C., Nutrient Broth, read-out: MIC
[19] = A203411, overnight incubation at 37° C., Nutrient Broth
[20] = read-out: T1/2 (half-life in solution) (converted)

CC(SC1=C(C(=O)[O-])N2C(=O)[C@H]([C@@H](C)O)[C@H]2C1)c1cc[n+](C)cc1 (stereo partly shown) [Example 12]
MIC [1, 18]: 2 µg/mL (≈ 5.74 µM)
MIC [2]: 0.06 µg/mL (≈ 0.172 µM)
MIC [3]: 0.016 µg/mL (≈ 0.0459 µM)
MIC [4]: 0.002 µg/mL (≈ 0.00574 µM)
MIC [5]: 0.06 µg/mL (≈ 0.172 µM)
ED50 [6]: 1.8 mg/kg
ED50 [7]: 0.89 mg/kg
MIC [8]: 0.5 µg/mL (≈ 1.44 µM)
MIC ([9]; A9537, overnight incubation at 37° C., Nutrient Broth): 0.008 µg/mL (≈ 0.023 µM)
MIC ([9]; A9537, +50% serum): 0.016 µg/mL (≈ 0.0459 µM)
MIC [10, 19]: 0.008 µg/mL (≈ 0.023 µM)
MIC [11]: 0.13 µg/mL (≈ 0.373 µM)

C[C@@H](O)[C@H]1C(=O)N2C(C(=O)[O-])=C(SCc3cn(C)n[n+]3C)C[C@H]12 [Example 15 "A", 3-[4-(N,N-dimethyl-1,2,3-triazolium)methylthio]-6α-[1-(R)-hydroxyethyl]-7-oxo-1-azabicyclo(3.2.0)hept-2-ene-2-carboxylate]
MIC [3]: 0.008 µg/mL (≈ 0.0236 µM)
MIC [4]: 0.0005 µg/mL (≈ 0.00148 µM)
ED50 [6]: 0.39 mg/kg
MIC [12]: 0.0005 µg/mL (≈ 0.00148 µM)
AUC [13]: 9500 ng·h/mL
Cmax [13]: 16700 ng/mL
half-life [13]: 12 min

C[C@@H](O)[C@H]1C(=O)N2C(C(=O)[O-])=C(SCc3cn(CC(=O)O)n[n+]3C)C[C@H]12 [Example 18, Potassium 3-[4-(1-carboxylatomethyl-3-methyl-1,2,3-triazolium)-methanethio]-6α-[1-(R)-hydroxyethyl]-7-oxo-1-azabicyclo[3.2.0]hept-2-ene-2-carboxylate]
MIC [1, 18]: 63 µg/mL
MIC ([2]; read-out: MIC): 63 µg/mL
MIC [4]: 1 µg/mL
MIC ([5]; overnight incubation at 37° C., Nutrient Broth, read-out: MIC): 63 µg/mL
MIC [12]: 2 µg/mL
MIC ([14]; overnight incubation at 37° C., Nutrient Broth): 16 µg/mL
MIC [8]: 63 µg/mL
AUC [13]: 3900 ng·h/mL
Cmax [13]: 14900 ng/mL
half-life [13]: 6 min
MIC ([9]; A9537, +50% serum): > 63 µg/mL
MIC [10, 19]: 16 µg/mL

C[C@@H](O)[C@H]1C(=O)N2C(C(=O)[O-])=C(SCc3n(Cc4ccccc4)cc[n+]3C)C[C@H]12 [Example 13, 3-(N Methyl-N'-benzylimidazole-2-yl-methanethio)-6α-[1-(R)-hydroxyethyl]-7-oxo-1-azabicyclo(3.2.0)hept-2-ene-2-carboxylate]
MIC [1, 18]: 2 µg/mL (≈ 4.84 µM)
MIC [3]: 0.008 µg/mL (≈ 0.0193 µM)
MIC [4]: 0.0005 µg/mL (≈ 0.00121 µM)
MIC [12]: 0.0005 µg/mL (≈ 0.00121 µM)
AUC [13]: 6400 ng·h/mL
Cmax [13]: 14800 ng/mL
half-life [13]: 11 min

C[C@@H](O)[C@H]1C(=O)N2C(C(=O)[O-])=C(SCCc3cc[n+](C)cc3)C[C@H]12 [Example 2]
MIC [1, 18]: 2 µg/mL (≈ 5.74 µM)
MIC [3]: 0.016 µg/mL (≈ 0.0459 µM)
MIC [4]: 0.001 µg/mL (≈ 0.00287 µM)
MIC [12]: 0.001 µg/mL (≈ 0.00287 µM)
MIC ([14]; table 2, no inoculum dilution printed): 0.016 µg/mL (≈ 0.0459 µM)
AUC [13]: 5300 ng·h/mL
Cmax [13]: 13900 ng/mL
half-life [13]: 9 min
MIC ([10]; A203411, table 2, no inoculum dilution printed): 0.016 µg/mL (≈ 0.0459 µM)

C[C@@H](O)[C@H]1C(=O)N2C(C(=O)[O-])=C(SCc3scc[n+]3C)C[C@H]12 [Example 11, 3-[2-(N-Methylthiazolium)methylthio]-6α-[1-(R)-hydroxyethyl]-7-oxo-1-azabicyclo(3.2.0)hept-2-ene-2-carboxylate]
MIC [3]: 0.03 µg/mL (≈ 0.0881 µM)
MIC [8]: 0.5 µg/mL (≈ 1.47 µM)
AUC [13]: 7400 ng·h/mL
Cmax [13]: 14900 ng/mL
half-life [13]: 11 min

C[C@@H](O)[C@H]1C(=O)N2C(C(=O)[O-])=C(SCc3cn(C)[n+](C)c3)C[C@H]12 [Example 47]
half-life ([15]; biological buffer, read-out: T 1/2 (half-life in solution) (converted)): 912 min

COCC[n+]1ccccc1CSC1=C(C(=O)[O-])N2C(=O)[C@H]([C@@H](C)O)[C@H]2C1 [Example 52, (5R,6S) 6-(1R-hydroxyethyl)-3-[{1-(2-methoxyethyl)pyridinium-2-yl}methylthio]-7-oxo-1-azabicyclo[3.2.0]hept-2-ene-2-carboxylate]
half-life at 100 µM [15, 20]: 594 min

Cc1cc(CSC2=C(C(=O)[O-])N3C(=O)[C@H]([C@@H](C)O)[C@H]3C2)c[n+](C)c1 [Example 37]
half-life at 100 µM [15, 20]: 804 min

Cc1cc(CSC2=C(C(=O)[O-])N3C(=O)[C@H]([C@@H](C)O)[C@H]3C2)cc(C)[n+]1C [(5R,6S) 6-(1R-hydroxyethyl)-7-oxo-3-[(1,2,6-trimethylpyridinium-4-yl)methylthio]-1-azabicyclo[3.2.0]hept-2-ene-2-carboxylate]
half-life at 100 µM [15, 20]: 696 min

C#CCC[n+]1ccccc1CSC1=C(C(=O)[O-])N2C(=O)[C@H]([C@@H](C)O)[C@H]2C1 [Example 53, (5R,6S) 3[(1-{but-3-yn-1-ylpyridinium-2-yl)}methylthio]-6-(1R-hydroxyethyl)-7-oxo-1-azabicyclo[3.2.0]hept-2-ene-2-carboxylate]
half-life at 100 µM [15, 20]: 612 min

Cc1c(CSC2=C(C(=O)[O-])N3C(=O)[C@H]([C@@H](C)O)[C@H]3C2)ccc[n+]1C [Example 14, 3-(2-Methyl-N-methylpyridine-3-yl-methanethio)-6α[1-(R)-hydroxyethyl]-7-oxo-1-azabicyclo(3.2.0)hept-2-ene-2-carboxylate]
MIC [1, 18]: 0.5 µg/mL (≈ 1.44 µM)
MIC [3]: 0.016 µg/mL (≈ 0.0459 µM)
MIC [4]: 0.0005 µg/mL (≈ 0.00144 µM)
ED50 [6]: 0.45 mg/kg
MIC [12]: 0.0005 µg/mL (≈ 0.00144 µM)
ED50 [7]: 0.07 mg/kg
AUC [13]: 7600 ng·h/mL
Cmax [13]: 15800 ng/mL
half-life [13]: 13 min

Cc1sc(CSC2=C(C(=O)[O-])N3C(=O)[C@H]([C@@H](C)O)[C@H]3C2)c(C)[n+]1C [Example 10, 3-(2,3,4-Trimethylthiazole-5-yl-methanethio)-6α-[1-(R)-hydroxyethyl]-7-oxo-1-azabicyclo(3.2.0)hept-2-ene-2-carboxylate]
MIC [1, 18]: 2 µg/mL (≈ 5.43 µM)
MIC [16]: 0.06 µg/mL (≈ 0.163 µM)
MIC [3]: 0.016 µg/mL (≈ 0.0434 µM)
MIC [4]: 0.001 µg/mL (≈ 0.00271 µM)
MIC [12]: 0.001 µg/mL (≈ 0.00271 µM)
AUC [13]: 9500 ng·h/mL
Cmax [13]: 20100 ng/mL
half-life [13]: 11 min
MIC [17]: 0.06 µg/mL (≈ 0.163 µM)

C[C@@H](O)[C@H]1C(=O)N2C(C(=O)[O-])=C(SCc3cs[n+](C)n3)C[C@H]12 [Example 16, (5R,6S) 6-(1R-hydroxyethyl)-3-(2-methyl-1,2,3-thiadiazolium-4-ylmethylthio)-7-oxo-1-azabicyclo[3.2.0]hept-2-ene-2-carboxylate]
MIC ([1]; A21213): 0.13 µg/mL (≈ 0.381 µM)
MIC [3]: 0.03 µg/mL (≈ 0.0879 µM)
MIC [8]: 1 µg/mL (≈ 2.93 µM)
half-life at 100 µM [15, 20]: 588 min

C[C@@H](O)[C@H]1C(=O)N2C(C(=O)[O-])=C(SCc3n(C)nc[n+]3C)C[C@H]12 [Example 19, 3-[5-(1,4-dimethyl-1,2,4-triazolium)-methanethio]-6α-[1-(R)-hydroxyethyl]-7-oxo-1-azabicyclo[3.2.0]hept-2-ene-2-carboxylate]
MIC [3]: 0.016 µg/mL (≈ 0.0473 µM)
AUC [13]: 15100 ng·h/mL
Cmax [13]: 27000 ng/mL
half-life [13]: 16.7 min
MIC ([9]; A9537, +50% serum): 0.008 µg/mL (≈ 0.0236 µM)
half-life ([15]; phosphate buffer, pH 7.4, M=0.967, T=37° C., read-out: T1/2 (half-life in solution) (converted)): 546 min
